{"source": "patent US12402610B2", "about": "“Methods and compositions for modulating innate lymphoid cell pathogenic effectors” (The Broad Institute, Inc., priority 2018, dated 2025)", "key": {"[1]": {"system": "skin ILCs", "test": "Alternative psoriasis model using topical imiquimod in IL-5 fate / IL-22 BFP / IL-17A GFP reporter mouse", "assay_type": "in vivo"}, "[2]": {"system": "circulating total white blood cells", "test": "Total circulatory white blood cell numbers after FTY720 treatment", "assay_type": "in vivo, mouse", "conditions": "FTY720 1 mg/kg i.p., WT and Rag1−/− mice, vs untreated", "from_the_text": "(§1) To determine which cells are key to initiate psoriatic disease, Applicants studied a subcutaneous IL-23 injection model, which leads to increased skin thickness after five days of daily injections (FIG. 1a, FIG. 5a). First, Applicants assessed the role of different immune cell types in this model (FIG. 1b, FIG. 5b,c). […] This is also consistent with an increased number of human ILC3s recently observed in psoriatic patients^3,4. Moreover, while γδ T cells have been implicated in a longer treatment course^2,5, analyzing Tcrd^−/− mice, which lack only γδ T cells, Applicants found no evidence that they contribute to disease initiation (FIG. 1b). […] Applicants compared disease phenotype between control mice and those treated with FTY720, which blocks signaling from the S1P1 receptor, preventing egress of T cells from secondary lymphoid tissues and limiting trafficking of induced ILC2s^7,11. […] Thus, in contrast to a model of lung inflammation, in psoriasis, tissue-resident ILCs are sufficient to drive disease pathology and are critical for amplifying the response to IL-23.\nPsoriasis model. The psoriasis model used in this study is based on rIL-23 subcutaneous injections. […] Skin thickness was measured daily with calipers. […]"}, "[3]": {"system": "ear skin", "test": "IL-23 subcutaneous injection psoriasis model, skin thickness measured with calipers", "assay_type": "in vivo, mouse", "from_the_text": "as §1\n(§2) Psoriasis model. The psoriasis model used in this study is based on rIL-23 subcutaneous injections. The 500 ng in 20 μl of rIL-23 (provided by Abbvie or purchased from R&D Systems [scRNAseq experiments]) was injected daily into the ear skin of anesthetized mice in 4 consecutive days. As a control 20 μl of PBS was used with the same injection intervals. For the second challenge experiment, Applicants waited 10 days, monitoring the skin thickness before repeating 4-day injection regimen. Skin thickness was measured daily with calipers. When indicated, FTY720 (1 mg/kg) was dissolved in PBS and administered i.p on day −1, 1 and 3 of the experiment. Skin tissue was collected on day 5 for histology imaging, flow cytometry analysis or cell sorting."}, "[4]": {"system": "skin ILCs", "test": "Intracellular cytokine staining of skin ILCs after IL-23 treatment", "assay_type": "in vivo, mouse", "from_the_text": "(§3) Next, Applicants tested the prediction of a transition during disease of IL-5-expressing ILC2s into IL-22/IL-17A-expressing ILC3-like cells. Applicants generated an IL-5 fate reporter mouse from IL-5-cre-dTomato (Red5)^50 and Rosa26^flox-Stop-floxYFP, which Applicants then combined with IL-17A^GFP 51 and IL-22^BFP expression reporters (FIG. 4b). […] Moreover, cells that expressed ILC3 type cytokines no longer expressed IL-5 (FIG. 4d). […] Finally, Applicants also tested the model's prediction that there is a subset of skin ILCs in the psoriasis model that co-expresses the type 2 cytokine IL-13 with both of the type 3 cytokines IL-22 and IL-17A.\nas §2, with “sorting. […]” for “sorting.”"}, "[5]": {"system": "skin ILCs", "test": "IL-5 fate mapping with IL-17A GFP and IL-22 BFP reporters after IL-23 injection", "assay_type": "in vivo, mouse", "from_the_text": "as §3\nMice. C57BL/6, Tcrd^−/− and Rosa26^flox-stop-floxYFP Ai3(RCL-EYFP) mice were purchased from the Jackson Laboratories. Rag1^−/− and Rag2^−/−IL2rg^−/− were purchased from Taconic Biosciences. IL-5 Cre, dTomato (Red5/R5) from Dr Locksley laboratory. The IL-5 fate reporter in this work was generated by crossing Red5 with Ai3(RCL-EYFP) with IL-17A^GFP 51 and IL-22^BFP generated in Applicants laboratory. In order to maximize the Cre recombination and increase the signal of Rosa26^YFP positive cells, Applicants used homozygous IL-5^dTomato, Cre. Applicants observed little to no difference in IL-23 induced skin thicknening (FIG. 8a).\nPsoriasis model. […] Skin thickness was measured daily with calipers. […]"}}, "note": "“Also recorded” adds a separate entry of the source.", "data": [{"compound": "CC(C)Cn1cnc2c(N)nc3ccccc3c21", "note": "[imiquimod]", "values": [{"measurement": "IL-22 production, compared with IL-23 injection model", "setting": "[1]; topically treated over 10 days", "result": "less induced"}, {"measurement": "IL-17A producing cells including exIL-5 cells", "setting": "[1]; topically treated over 10 days vs untreated mice", "result": "increase"}]}, {"compound": "CCCCCCCCc1ccc(CCC(N)(CO)CO)cc1", "note": "[FTY720, reference compound]", "values": [{"measurement": "circulating total white blood cells", "setting": "[2]", "result": "blocks; also recorded: reduction"}, {"measurement": "psoriasis phenotype induction upon IL-23 administration (skin thickness)", "setting": "[3]; FTY720-treated vs untreated controls, WT or Rag1−/− mice", "result": "no difference"}, {"measurement": "increased susceptibility to a secondary challenge with IL-23 (skin thickness)", "setting": "[3]; FTY720 during the primary injection", "result": "does not impact; also recorded: also observed"}]}, {"compound": "IL-23: recombinant cytokine injected subcutaneously into ear skin to induce the psoriasis model", "values": [{"measurement": "cells expressing IL-22 and IL-17A that also co-express IL-13", "setting": "[4]; Rag1−/− mice", "result": "~20", "unit": "%"}, {"measurement": "cells expressing IL-22 and IL-17A that also co-express IL-13", "setting": "[4]; WT and Tcrd−/− mice", "result": "~10", "unit": "%"}, {"measurement": "increase in skin thickness over the treatment course", "setting": "[3]; Rag1−/− mice (intact ILCs)", "result": "significant increase"}, {"measurement": "increase in ear thickness", "setting": "[3]; Rag2−/− Il2rg−/− double mutant (lacks all lymphocytes)", "result": "did not show any increase"}, {"measurement": "skin thickening, treated versus untreated recipient mice", "setting": "[3]; Rag2−/− Il2rg−/− mice with adoptively transferred sorted skin ILCs", "result": "significant skin thickening"}, {"measurement": "skin thickness", "setting": "[3]; WT mice, daily subcutaneous injections, vs PBS vehicle", "result": "significantly higher; also recorded: increased"}, {"measurement": "time for inflammation and skin thickness to revert to near-baseline levels", "setting": "[3]; after the initial injection", "result": "≤ 10", "unit": "days"}, {"measurement": "phenotype after a second series of injections compared to initial response", "setting": "[3]; second challenge", "result": "significantly more severe"}, {"measurement": "IL-22- and IL-17A-expressing cells that were ex-IL-5 producing cells", "setting": "[5]; after IL-23 injection, fate mapping of ILC2s", "result": "~10", "unit": "%"}, {"measurement": "number of ex-IL-5 cells producing IL-22 and IL-17A", "setting": "[5]; second IL-23 challenge", "result": "further elevated"}]}]}
